{
  "source": "patent US20110212909A1",
  "about": "“Use of Ginsenoside Compound K in the Preparation of a Medicament for the Prevention and Treatment of Atherosclerosis” (priority 2008, published 2011)",
  "format_in_all_cases": "in vivo",
  "settings_in_all_cases": "apo E−/− mice, 15 weeks",
  "key": {"[1]": {"test_system": "CD36 mRNA", "experiment": "Real-time quantitative PCR of CD36 mRNA in apo E−/− mouse aorta", "description": "(§1) 80 healthy clean grade C57BL/6J apo E^−/^− mice of 10 weeks old, wherein male and female mice were fifty-fifty, weight 20-22 g, were breed and divided into individual cage in sterile laminar flow rack, allowing mice to freely drink water and get food. Mice were raised for 30 weeks by “Western Diet” (routine mouse feed +0.15% cholesterol +21% fat) high fat feed (^60cobalt sterilization radiation treatment), with raising conditions being SPF grade, room temperature maintained at 24° C., relative humidity of 50%, and lighting time of 7: 30-19: 30. Animal house was sterilized by ultraviolet lamp once every two days, in order to maintain sterile environment of laminar flow rack (establishment of animal model of atherosclerosis refers to reference: Barish G D, Atkins A R, Downes M, Olson P, Chong L W, Nelson M, Zou Y H, Hwang H S, Kang H J, Curtiss L, Evans R M, Lee C H. PPARδ regulates multiple proinflammatory pathways to suppress atherosclerosis. Proc Natl Acad Sci, 2008, 105 (11): 4271-4276.).\n(§2) 5 mice of apo E^−/^− mice raised for 15 weeks were randomly selected and sacrificed, root of aorta of which was taken, and replication condition in AS model was observed by HE staining. The remaining mice were randomly divided into 5 groups as follows (n=15): […]\n(§3) Above drugs were firstly solved in DMSO, then suspended in 0.5% carboxymethylcellulose solution, mixed homogeneously, and then were administered via gavage, once a day. Mice were weighted once a week, and ingestion amounts were recorded, and drug doses were adjusted according to weight, interfering for 15 weeks. […]\n(§4) • blood fat assay: TC, TG, HDL-C, and LDL-C concentrations in serum were determined by applying Olympus Au2700 fully automatic biochemical appearance. • serum inflammatory markers assay: hs-CRP and sCD40L concentrations were determined by applying double antibody sandwich ELISA, in accordance with ELISA kit operating instruction (hs-CRP ELISA kit bought from Herrenberg company, Germany; sCD40L ELISA kit bought from Bender Medsystems company, Austria). • real-time quantitative PCR analysis was carried out on expression of CD36, perilipin, ABCA1, LXRα, MMP-9 and NF-κ B mRNA in apo E^−/^− mouse aorta (a reference method: Zhang Yiguan, Li Xiaohui, Fan Jishan, Zhang Haigang, Li Shuhui, Liao Wenqiang, Pang Yan, Jia Yi. […] 2007, 27 (11): 1601-1607)0 • morphology index image analysis: When slices were HE stained, under X40 fold ordinary light microscope, artery atherosclerosis plaque area of each incisal surface was determined by “Image Pro Plus 5.0” image analysis software. […] As to Masosn staining, aortic root collagen area (CA) was measured by “Image Pro Plus 5.0” image analysis software, and collagen vessel area ratio (CA/CVA) was calculated. […]"}, "[2]": {"test_system": "perilipin mRNA", "experiment": "Real-time quantitative PCR of perilipin mRNA in apo E−/− mouse aorta", "quoted_text": "Total RNA sample of root of aorta of apo E^−/^− mouse: Total RNA samples of root of aorta in each group mouse were extracted, and utilized for analysis of gene expression of various lipid metabolic factors, inflammatory factors, and nucleic transcription factors associated with AS plaque development."}, "[3]": {"test_system": "MMP-9 mRNA", "experiment": "Real-time quantitative PCR of MMP-9 mRNA in apo E−/− mouse aorta", "description": "as §1, §2, §3, §4"}, "[4]": {"test_system": "AS plaque in apo E−/− mouse aorta", "experiment": "Morphology index image analysis of AS plaque at aortic root (HE and MASSON staining)", "description": "as §1\n5 mice of apo E^−/^− mice raised for 15 weeks were randomly selected and sacrificed, root of aorta of which was taken, and replication condition in AS model was observed by HE staining. The remaining mice were randomly divided into 5 groups as follows (n=15):\nA. model group: vehicle; B. ginsenoside compound K low dose group: ginsenoside compound K 12.5 mg/kg/day; C. ginsenoside compound K middle dose group: ginsenoside compound K 25.0 mg/kg/day; D. ginsenoside compound K high dose group: ginsenoside compound K 50.0 mg/kg/day; E. simvastatin control group: simvastatin 10.0 mg/kg/day.\nAbove drugs were firstly solved in DMSO, then suspended in 0.5% carboxymethylcellulose solution, mixed homogeneously, and then were administered via gavage, once a day. Mice were weighted once a week, and ingestion amounts were recorded, and drug doses were adjusted according to weight, interfering for 15 weeks. All the animal were sacrificed in 30th week.\nTissues of apo E^−/^− mice were sliced for AS plaque pathology: blood of eye sockets venous plexus of apo E−/− mice was sampled before the mice was sacrificed by cervical dislocation, and aorta was fixed by converse infusion of physiological saline comprising 4% paraformaldehyde into left ventricle, and then whole aorta was cut off from root of aorta to terminal end of abdomen aorta. Root of aorta was taken, and embedded routinely by paraffin, and slices of thickness of 5 μm were continuously cut off from root of aorta, and were subjected separately to HE staining, and MASSON staining, and then were utilized for AS plaque morphological index analysis of aortic valve cross section.\nPathological staining: […]sequent 2 pieces of slices were picked up from each incisal surface of sequent paraffin slices of aorta root per mouse, and were separately subjected to HE staining, and MASSON staining, and were observed under light microscope. […]remaining aorta was stained by Sudan IV, and was observed under light microscope.\n• blood fat assay: TC, TG, HDL-C, and LDL-C concentrations in serum were determined by applying Olympus Au2700 fully automatic biochemical appearance. • serum inflammatory markers assay: hs-CRP and sCD40L concentrations were determined by applying double antibody sandwich ELISA, in accordance with ELISA kit operating instruction (hs-CRP ELISA kit bought from Herrenberg company, Germany; sCD40L ELISA kit bought from Bender Medsystems company, Austria). • real-time quantitative PCR analysis was carried out on expression of CD36, perilipin, ABCA1, LXRα, MMP-9 and NF-κ B mRNA in apo E^−/^− mouse aorta (a reference method: Zhang Yiguan, Li Xiaohui, Fan Jishan, Zhang Haigang, Li Shuhui, Liao Wenqiang, Pang Yan, Jia Yi. Total panax notoginsenosides suppress atherosclerosis formation in rats by means of antiinflammatory and blood fat regulating action. Progress in Modern Biomedicine. […]"}, "[5]": {"settings": "C-K high dose 50.0 mg/kg/day gavage"}, "[6]": {"settings": "C-K middle dose 25.0 mg/kg/day gavage"}, "[7]": {"settings": "simvastatin 10.0 mg/kg/day gavage"}},
  "note": "Marks after values point to notes of the source that are not given here.",
  "data": [
    {"smiles": "CC(C)=CCC[C@](C)(OC1OC(CO)C(O)C(O)C1O)C1CC[C@]2(C)C1[C@H](O)CC1[C@@]3(C)CC[C@H](O)C(C)(C)C3CC[C@]12C", "note": "(stereo partly drawn) [C-K, 20-O-β-D-glucopyranosyl 20-(S)-protopanaxadiol]", "values": [
      {"measurement": "expression of CD36 mRNA in aorta (relative concentrations)", "setting": "[1]; [5]", "result": "0.31 ± 0.08^b"},
      {"measurement": "expression of CD36 mRNA in aorta (relative concentrations)", "setting": "[1]; C-K low dose 12.5 mg/kg/day gavage, model 1.12 ± 0.13", "result": "0.54 ± 0.07^b"},
      {"measurement": "expression of CD36 mRNA in aorta (relative concentrations)", "setting": "[1]; [6]", "result": "0.47 ± 0.08^b"},
      {"measurement": "expression of perilipin mRNA in aorta (relative concentrations)", "setting": "[2]; [5]", "result": "0.51 ± 0.54^a"},
      {"measurement": "expression of perilipin mRNA in aorta (relative concentrations)", "setting": "[2]; C-K low dose 12.5 mg/kg/day gavage, model 1.08 ± 0.06", "result": "0.68 ± 0.56^a"},
      {"measurement": "expression of perilipin mRNA in aorta (relative concentrations)", "setting": "[2]; [6]", "result": "0.60 ± 0.49^a"},
      {"measurement": "expression of MMP-9 mRNA in aorta (relative concentrations)", "setting": "[3]; [5]", "result": "0.67 ± 0.13^b"},
      {"measurement": "expression of MMP-9 mRNA in aorta (relative concentrations)", "setting": "[3]; C-K low dose 12.5 mg/kg/day gavage, model 1.15 ± 0.12", "result": "0.87 ± 0.12^b"},
      {"measurement": "expression of MMP-9 mRNA in aorta (relative concentrations)", "setting": "[3]; [6]", "result": "0.78 ± 0.11^b"},
      {"measurement": "CA (aortic root collagen area)", "setting": "[4]; [5]", "result": "0.69 ± 0.13^b mm^2"},
      {"measurement": "CA/CVA (corrected collagen area)", "setting": "[4]; [5]", "result": "42.40 ± 6.74^b %"},
      {"measurement": "CVA (vessel cross section area)", "setting": "[4]; [5]", "result": "1.62 ± 0.12", "unit": "mm^2"},
      {"measurement": "LCA (lipid core area)", "setting": "[4]; [5]", "result": "0.21 ± 0.03^b mm^2"},
      {"measurement": "LCA/PA (corrected lipid core area)", "setting": "[4]; [5]", "result": "40.01 ± 1.94^b %"},
      {"measurement": "PA (plaque area)", "setting": "[4]; [5]", "result": "0.52 ± 0.10^b mm^2"},
      {"measurement": "PA/CVA (corrected plaque area)", "setting": "[4]; [5]", "result": "32.29 ± 6.29^b %"},
      {"measurement": "mFCT (minimal fibrous cap thickness)", "setting": "[4]; [5]", "result": "30.65 ± 1.37^b μm"},
      {"measurement": "CA (aortic root collagen area)", "setting": "[4]; C-K low dose 12.5 mg/kg/day gavage, model 0.39 ± 0.13", "result": "0.56 ± 0.14^b mm^2"},
      {"measurement": "LCA (lipid core area)", "setting": "[4]; C-K low dose 12.5 mg/kg/day gavage, model 0.44 ± 0.05", "result": "0.32 ± 0.05^b mm^2"},
      {"measurement": "PA (plaque area)", "setting": "[4]; C-K low dose 12.5 mg/kg/day gavage, model 0.90 ± 0.12", "result": "0.78 ± 0.13^a mm^2"},
      {"measurement": "CVA (vessel cross section area)", "setting": "[4]; C-K low dose 12.5 mg/kg/day gavage, model 1.70 ± 0.19", "result": "1.68 ± 0.16", "unit": "mm^2"},
      {"measurement": "mFCT (minimal fibrous cap thickness)", "setting": "[4]; C-K low dose 12.5 mg/kg/day gavage, model 20.40 ± 3.31", "result": "28.48 ± 1.89^b μm"},
      {"measurement": "CA/CVA (corrected collagen area)", "setting": "[4]; C-K low dose 12.5 mg/kg/day gavage, model 22.60 ± 5.41", "result": "33.33 ± 4.37^b %"},
      {"measurement": "LCA/PA (corrected lipid core area)", "setting": "[4]; C-K low dose 12.5 mg/kg/day gavage, model 48.28 ± 2.71", "result": "41.03 ± 1.32^b %"},
      {"measurement": "PA/CVA (corrected plaque area)", "setting": "[4]; C-K low dose 12.5 mg/kg/day gavage, model 53.82 ± 10.02", "result": "46.43 ± 7.38^a %"},
      {"measurement": "CA (aortic root collagen area)", "setting": "[4]; [6]", "result": "0.62 ± 0.09^b mm^2"},
      {"measurement": "CA/CVA (corrected collagen area)", "setting": "[4]; [6]", "result": "36.08 ± 4.82^b %"},
      {"measurement": "CVA (vessel cross section area)", "setting": "[4]; [6]", "result": "1.71 ± 0.14", "unit": "mm^2"},
      {"measurement": "LCA (lipid core area)", "setting": "[4]; [6]", "result": "0.29 ± 0.05^b mm^2"},
      {"measurement": "LCA/PA (corrected lipid core area)", "setting": "[4]; [6]", "result": "40.33 ± 1.18^b %"},
      {"measurement": "PA (plaque area)", "setting": "[4]; [6]", "result": "0.72 ± 0.12^a mm^2"},
      {"measurement": "PA/CVA (corrected plaque area)", "setting": "[4]; [6]", "result": "42.26 ± 8.35^a %"},
      {"measurement": "mFCT (minimal fibrous cap thickness)", "setting": "[4]; [6]", "result": "30.44 ± 1.75^b μm"}
    ]},
    {"smiles": "CCC(C)(C)C(=O)O[C@H]1C[C@@H](C)C=C2C=C[C@H](C)[C@H](CC[C@@H]3C[C@@H](O)CC(=O)O3)[C@H]21", "note": "[simvastatin, reference compound]", "values": [
      {"measurement": "expression of CD36 mRNA in aorta (relative concentrations)", "setting": "[1]; [7]", "result": "0.77 ± 0.11^a"},
      {"measurement": "expression of perilipin mRNA in aorta (relative concentrations)", "setting": "[2]; [7]", "result": "0.23 ± 1.32^b"},
      {"measurement": "expression of MMP-9 mRNA in aorta (relative concentrations)", "setting": "[3]; [7]", "result": "0.94 ± 0.14^a"},
      {"measurement": "CA (aortic root collagen area)", "setting": "[4]; [7]", "result": "0.57 ± 0.08^a mm^2"},
      {"measurement": "CA/CVA (corrected collagen area)", "setting": "[4]; [7]", "result": "34.73 ± 4.49^b %"},
      {"measurement": "CVA (vessel cross section area)", "setting": "[4]; [7]", "result": "1.65 ± 0.11", "unit": "mm^2"},
      {"measurement": "LCA (lipid core area)", "setting": "[4]; [7]", "result": "0.32 ± 0.04^b mm^2"},
      {"measurement": "LCA/PA (corrected lipid core area)", "setting": "[4]; [7]", "result": "43.39 ± 4.01^b %"},
      {"measurement": "PA (plaque area)", "setting": "[4]; [7]", "result": "0.74 ± 0.17", "unit": "mm^2"},
      {"measurement": "PA/CVA (corrected plaque area)", "setting": "[4]; [7]", "result": "44.70 ± 8.44^a %"},
      {"measurement": "mFCT (minimal fibrous cap thickness)", "setting": "[4]; [7]", "result": "27.72 ± 2.30^b μm"}
    ]}
  ]
}
